Literature values as cited in patent publication US7989405B2, “Prevention of microbial growth in metal working fluids” (Illinois Tool Works Inc., priority 2001, dated 2011).

How the values were obtained:
Staphylococcus aureus = conditions: Bacterial: Staphylococcus aureus
Aspergillus niger = conditions: Fungal: Aspergillus niger
Escherischia coli = conditions: Bacterial: Escherischia coli
Fusarium moniliforme = conditions: Fungal: Fusarium moniliforme
Pseudomonas aeruginosa = conditions: Bacterial: Pseudomonas aeruginosa
Enterobacter aerogenes = conditions: Bacterial: Enterobacter aerogenes
Saccharomyces cerevisiae = conditions: Fungal: Saccharomyces cerevisiae

**Q.** What does the source list for `CCC12COCN1COC2` [Bioban CS-1246, 7a-ethyldihydro-1H,3H,5H-oxazolo(3,4-c)oxazole]?
**A.** MIC (Staphylococcus aureus): 200-250 parts per million; MIC (Aspergillus niger): 65-125 parts per million; MIC (Escherischia coli): 450-500 parts per million; MIC (Fusarium moniliforme): 125-250 parts per million; MIC (Pseudomonas aeruginosa): 800-850 parts per million; irritation of eyes and skin (as supplied): irritating to eyes and skin; mutagenicity (as supplied): non-mutagenic; sensitisation (as supplied): not a sensitising agent; toxicity by inhalation and skin contact (as supplied): harmful by inhalation and in contact with the skin; hazard (at typical use dilutions): no hazard; MIC (Enterobacter aerogenes): 250-300 parts per million; MIC (Saccharomyces cerevisiae): 16-33 parts per million
